{"source": "patent US6399833B1", "about": "“Process for producing aryl vinyl sulfone solution and use thereof” (Sumitomo Chemical Company, Limited, priority 1998, dated 2002)", "key": {"[1]": {"assay": "Stability of phenyl vinyl sulfone/acetonitrile solution, thermostatic bath at 40° C., analysed by gas chromatography", "assay_type": "physicochemical", "conditions": "30% acetonitrile solution, stainless steel chip, nitrogen", "procedure": "About 70 ml of a phenyl vinyl sulfone/acetonitrile solution (phenyl vinyl sulfone concentration, 30%) and a chip of stainless steel (20 mm×25 mm×2 mm) (assuming the storage in a stainless steel vessel) were put in a glass sample tube of 100 ml in volume, which was purged with nitrogen gas and then sealed with a tight stopper, followed by stability tests in a thermostatic bath at 40° C. The concentration of phenyl vinyl sulfone in the phenyl vinyl sulfone/acetonitrile solution was analyzed by gas chromatography."}, "[2]": {"assay": "Stability of phenyl vinyl sulfone solutions in various solvents, thermostatic bath at 40° C., analysed by gas chromatography", "assay_type": "physicochemical", "conditions": "for Retention in DMF solution: N,N-dimethylformamide solution (30%); for Retention in ethanol solution: ethanol solution (10%); for Retention in MIK solution: methyl isobutyl ketone solution (30%); for Retention in MTBE solution: methyl t-butyl ether solution (10%); for Retention in toluene solution: toluene solution (30%)", "procedure": "About 35 ml of a phenyl vinyl sulfone solution and a chip of stainless steel (20 mm×25 mm×2 mm) (assuming the storage in a stainless steel vessel) were put in a glass sample tube of 50 ml in volume, which was purged with nitrogen gas and then sealed with a tight stopper, followed by stability tests in a thermostatic bath at 40° C. The results of retention when a toluene solution (concentration, 30%), a methyl isobutyl ketone solution (concentration, 30%), and a methyl t-butyl ether solution (concentration, 10%) were used as the phenyl vinyl sulfone solutions are shown in Table 2.\nThe concentration of phenyl vinyl sulfone in each solution was analyzed by gas chromatography. In the table, MIK refers to methyl isobutyl ketone; and MTBE, methyl t-butyl ether.\nStability tests were carried out in the same manner as described in Reference Example 3, except that an ethanol solution (concentration, 10%) and an N,N-dimethylformamide solution (concentration, 30%) were used as the phenyl vinyl sulfone solutions. In the table, DMF refers to N,N-dimethylformamide."}, "[3]": {"conditions": "Aldrich Material Safety Data; cited from earlier work"}}, "data": [{"smiles": "C=CS(=O)(=O)c1ccccc1", "note": "[phenyl vinyl sulfone]", "values": [{"measurement": "Retention", "setting": "[1]; 0 day", "result": 100, "unit": "%"}, {"measurement": "Retention", "setting": "[1]; 30 days", "result": 100, "unit": "%"}, {"measurement": "Retention", "setting": "[1]; 60 days", "result": 99.9, "unit": "%"}, {"measurement": "Retention", "setting": "[1]; 90 days", "result": 99.4, "unit": "%"}, {"measurement": "Appearance of solution on storage", "setting": "[2]; DMF solution (30%), with the lapse of storage days", "result": "yellow coloring was observed"}, {"measurement": "Retention in DMF solution", "setting": "[2]; 0 day", "result": 100, "unit": "%"}, {"measurement": "Retention in DMF solution", "setting": "[2]; 15 days", "result": 99.0, "unit": "%"}, {"measurement": "Retention in ethanol solution", "setting": "[2]; 0 day", "result": 100, "unit": "%"}, {"measurement": "Retention in ethanol solution", "setting": "[2]; 15 days", "result": 83.8, "unit": "%"}, {"measurement": "Retention in MIK solution", "setting": "[2]; 0 day", "result": 100, "unit": "%"}, {"measurement": "Retention in MIK solution", "setting": "[2]; 15 days", "result": 99.5, "unit": "%"}, {"measurement": "Retention in MTBE solution", "setting": "[2]; 0 day", "result": 100, "unit": "%"}, {"measurement": "Retention in MTBE solution", "setting": "[2]; 15 days", "result": 100, "unit": "%"}, {"measurement": "Retention in toluene solution", "setting": "[2]; 0 day", "result": 100, "unit": "%"}, {"measurement": "Retention in toluene solution", "setting": "[2]; 15 days", "result": 100, "unit": "%"}, {"measurement": "Irritation", "setting": "[3]", "result": "exhibit irritation"}]}]}
